In article PMC4352019, “Bioactivity-Guided Fractionation of an Antidiarrheal Chinese Herb Rhodiola kirilowii (Regel) Maxim Reveals (-)–Epicatechin-3-Gallate and (-)–Epigallocatechin-3-Gallate as Inhibitors of Cystic Fibrosis Transmembrane Conductance Regulator” (PLoS ONE, 2015):

Biological target: T1, Cystic fibrosis transmembrane conductance regulator (CFTR) (Homo sapiens, UniProt P13569)
T1 construct: human wild-type CFTR stably expressed in FRT cells
Test: YFP-H148Q iodide influx fluorescence assay in CFTR-expressing FRT cells; supported by short-circuit current in rat colonic mucosa
Assay type: cell-based

T1 sequence (P13569 whole entry): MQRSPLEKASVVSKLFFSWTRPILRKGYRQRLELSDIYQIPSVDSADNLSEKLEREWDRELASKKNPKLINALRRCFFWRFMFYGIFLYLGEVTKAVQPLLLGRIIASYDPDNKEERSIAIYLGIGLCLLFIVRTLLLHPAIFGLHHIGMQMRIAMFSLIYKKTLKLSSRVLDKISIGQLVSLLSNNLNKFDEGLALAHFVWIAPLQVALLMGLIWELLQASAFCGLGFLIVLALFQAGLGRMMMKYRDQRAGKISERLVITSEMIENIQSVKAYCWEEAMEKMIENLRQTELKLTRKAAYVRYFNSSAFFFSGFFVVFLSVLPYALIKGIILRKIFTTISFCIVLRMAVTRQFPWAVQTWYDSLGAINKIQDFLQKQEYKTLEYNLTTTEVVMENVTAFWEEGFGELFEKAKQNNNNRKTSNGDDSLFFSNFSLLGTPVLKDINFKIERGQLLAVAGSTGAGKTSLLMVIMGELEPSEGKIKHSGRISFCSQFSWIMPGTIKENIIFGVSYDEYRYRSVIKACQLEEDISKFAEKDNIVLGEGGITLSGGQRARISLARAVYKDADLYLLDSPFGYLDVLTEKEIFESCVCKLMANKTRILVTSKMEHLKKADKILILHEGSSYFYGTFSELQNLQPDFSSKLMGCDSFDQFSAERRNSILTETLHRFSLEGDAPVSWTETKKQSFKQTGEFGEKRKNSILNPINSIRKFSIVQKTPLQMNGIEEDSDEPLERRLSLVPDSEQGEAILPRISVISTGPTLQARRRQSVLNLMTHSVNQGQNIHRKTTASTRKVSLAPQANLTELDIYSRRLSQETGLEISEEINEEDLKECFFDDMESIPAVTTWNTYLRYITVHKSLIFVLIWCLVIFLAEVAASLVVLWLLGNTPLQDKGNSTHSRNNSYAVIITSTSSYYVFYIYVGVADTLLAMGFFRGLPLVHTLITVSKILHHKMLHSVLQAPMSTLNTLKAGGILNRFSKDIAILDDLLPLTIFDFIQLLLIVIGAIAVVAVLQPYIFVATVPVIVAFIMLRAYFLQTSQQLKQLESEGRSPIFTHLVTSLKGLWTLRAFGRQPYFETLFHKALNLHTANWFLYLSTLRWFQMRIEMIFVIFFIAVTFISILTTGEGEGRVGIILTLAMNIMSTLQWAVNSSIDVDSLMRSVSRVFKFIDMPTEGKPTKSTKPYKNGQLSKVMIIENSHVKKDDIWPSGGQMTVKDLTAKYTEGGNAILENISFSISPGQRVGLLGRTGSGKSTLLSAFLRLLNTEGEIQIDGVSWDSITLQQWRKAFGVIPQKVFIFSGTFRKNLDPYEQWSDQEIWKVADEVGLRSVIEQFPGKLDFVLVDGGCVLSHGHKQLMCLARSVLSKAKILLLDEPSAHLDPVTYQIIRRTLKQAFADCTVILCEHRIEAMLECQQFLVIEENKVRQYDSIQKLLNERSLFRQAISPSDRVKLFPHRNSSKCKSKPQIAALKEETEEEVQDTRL

O=C(O[C@@H]1Cc2c(O)cc(O)cc2O[C@@H]1c1cc(O)c(O)c(O)c1)c1cc(O)c(O)c(O)c1 [C2, (-)–epigallocatechin-3-gallate]
IC50: ~100 µM
